Source: patent EP0648766A1, “AGENT ACTING ON THE CENTRAL NERVOUS SYSTEM, METHOD FOR ITS PREPARATION AND PHARMACEUTICAL COMPOSITIONS CONTAINING SUCH AGENT” (VITA-INVEST, S.A., priority 1993, dated 1994)
Like-named read-outs stand apart in the source and are kept apart here.

How the values were obtained:
[1] = test system: mouse; assay: Antidepressive activity, desperate behaviour induced by enforced swimming, Porsolt test; format: in vivo; settings: mice
Protocol: 3) Antidepressive activity. Desperate behaviour induced in mouse by enforced swimming. Porsolt test.
This consists in subjecting the mice to a swimming test by placing them inside transparent cylinders of set dimensions, with water at a temperature of 20-22°C. After a prior detection test, the time the animal takes to adopt an immobile posture is determined, recording the duration of immobility. The average immobility time of the treated groups is compared with that of the control group.

[2] = Acute toxicity; parameters: species or system mice; settings: mouse, in vivo
Protocol: The acute toxicity is determined by different vias in mice.

[3] = test system: rats; assay: Effect on learning and memory, passive avoidance test; format: in vivo
Description: 4) Effect on learning and memory. Passive avoidance test on rats.
Use is made of the method of Chugh and colls., Eur. J. Pharmacol., 203, 121-123 (1991). This consists in placing the rats in a two-compartment (light and dark) box separated by a door which opens and closes as the experimenter wishes; the floor of both cages is constructed using a metal grid electrifiable as desired in terms of current and duration. The animal is conditioned to avoid the dark zone, and the time of latency in the exposures following the one in which the animals receive the electric shock of 0.2 mA and duration of 3 seconds is determined.

[4] = Anxiolytic activity, two-compartment box (method of Crawley); format: in vivo
Description: 1) Anxiolytic activity. Two-compartment box.
The method used is that of Crawley, J.N.; Pharmacol. Biochem. Behav., 15, 695-699 (1981). This consists of a two-compartment box with different lighting, counting the time of stay and number of entries into the light and dark compartments, the number of lifting movements and the number of lines crossed in each of the two compartments, before and after treatment with the products under study.

[5] = test system: rats; assay: Anxiolytic activity, social interaction test (method of File); format: in vivo
Description: 2) Anxiolytic activity. Social interaction test.
This consists in placing a pair of rats in an unknown and strongly lit environment.

[6] = ip, mice, i.p., read-out: APPROXIMATE DL₅₀
[7] = 0,01 mg/kg i.p., Excipient 158 ± 15

## CN(C)CCCN1c2ccccc2CCc2ccccc21 [[…]]
[1]; 30 mg/kg i.p., Excipient 132,53 ± 8,70
  […] (sec ± E.S.): 71,72 ± 9,82 sec

## CN1C2CCCC1CC(NC(=O)c1nn(C)c3ccccc13)C2 (stereo not shown) [GRANISETRON]
[2]; [6]
  LD50: 89 mg/kg
[3]; 0,1 mg/kg i.p., N 6, Excipient 5,7 ± 1,5
  2nd LATENCY (10'), average ± E.S.: 8,5 ± 1,8
[3]; 0,1 mg/kg i.p., N 6, Excipient 6
  2nd LATENCY (10'), median: 11
[3]; 0,1 mg/kg i.p., N 6, Excipient 7,1 ± 1,6
  1st LATENCY, average ± E.S.: 6,3 ± 1,1
[3]; 0,1 mg/kg i.p., N 6, Excipient 9
  1st LATENCY, median: 8
[3]; 0,1 mg/kg i.p., N 6, Excipient 10,7 ± 4,8
  3rd LATENCY -(24 h), average ± E.S.: 19,0 ± 6,5
[3]; 0,1 mg/kg i.p., N 6, Excipient 21
  3rd LATENCY -(24 h), median: 21

## Cc1nccn1CC1CCc2c(c3ccccc3n2C)C1=O (stereo not shown) [ONDANSETRON]
[4]; 2µg/kg i.p., N 10, same group PRE-EXPOSURE 16,6 ± 3,3
  % TIME IN LIGHT COMPARTMENT (X ± E.S.): 12,3 ± 2,7%
[4]; 4 µg/kg v.o., N 10, same group PRE-EXPOSURE 21,1 ± 8,0
  % TIME IN LIGHT COMPARTMENT (X ± E.S.): 18,7 ± 5,1%
[2]; ip
  LD50: 7.5 mg/kg
[5]; [7]
  SOCIAL INTERACTION TIME (sec ± E.S.): 247 ± 22 s
[5]; 0,05 mg/kg i.p., Excipient 158 ± 15
  SOCIAL INTERACTION TIME (sec ± E.S.): 219 ± 18 s

## O=C1CC2(CCCC2)CC(=O)N1CCCCN1CCN(c2ncccn2)CC1 [BUSPIRONA]
[5]; 0,25 mg/kg i.p., Excipient 158 ± 15
  SOCIAL INTERACTION TIME (sec ± E.S.): 287 ± 19 s
[5]; 1 mg/kg i.p., Excipient 158 ± 15
  SOCIAL INTERACTION TIME (sec ± E.S.): 275 ± 14 s

## CN1C(=O)CN=C(c2ccccc2)c2cc(Cl)ccc21 [DIAZEPAM]
[5]; 2 mg/kg i.p., Excipient 158 ± 15
  SOCIAL I[…] (sec ± E.S.): 257 ± 22 s

## COc1cc(N)c(Cl)cc1C(=O)NC1CN2CCC1CC2 (stereo not shown) [ZACOPRIDE]
[2]; [6]
  LD50: 135 mg/kg

## O=Cc1c(N2CCN(Cc3ccc4c(c3)OCO4)CC2)[nH]c2ccccc12 [COMPOUND I, 3-[2-(1-(4'-piperonylpiperazinyl))indolyl]-carboxaldehyde]
[4]; 2 µg/kg i.p., N 11, same group PRE-EXPOSURE 10,8 ± 3,6
  % TIME IN LIGHT COMPARTMENT (X ± E.S.): 14,6 ± 7,2%
[4]; 4 µg/kg v.o., N 10, same group PRE-EXPOSURE 14,5 ± 4,0
  % TIME IN LIGHT COMPARTMENT (X ± E.S.): 20,0 ± 5,5%
[4]; 8 µg/kg v.o., N 11, same group PRE-EXPOSURE 24,9 ± 6,8
  % TIME IN LIGHT COMPARTMENT (X ± E.S.): 28,6 ± 8,0%
[4]; 20 µg/kg i.p., N 11, same group PRE-EXPOSURE 10,7 ± 3,5
  % TIME IN LIGHT COMPARTMENT (X ± E.S.): 12,7 ± 6,5%
[4]; 50 µg/kg i.p., N 20, same group PRE-EXPOSURE 22,9 ± 3,1
  % TIME IN LIGHT COMPARTMENT (X ± E.S.): 15,4 ± 4,4%
[4]; 100 µg/kg i.p., N 20, same group PRE-EXPOSURE 15,0 ± 2,0
  % TIME IN LIGHT COMPARTMENT (X ± E.S.): 8,6 ± 3,2%
[1]; 0,1 mg/kg i.p., Excipient 89,70 ± 21,7
  IMMOBILITY TIME (sec ± E.S.): 49,4 ± 17,8 sec
[1]; 0,5 mg/kg i.p., Excipient 89,70 ± 21,7
  IMMOBILITY TIME (sec ± E.S.): 31,60 ± 10,2 sec
[1]; 1 mg/kg i.p., Excipient 132,53 ± 8,70
  IMMOBILITY TIME (sec ± E.S.): 59,80 ± 11,00 sec
[1]; 10 mg/kg i.p., Excipient 132,53 ± 8,70
  IMMOBILITY TIME (sec ± E.S.): 136,60 ± 11,26 sec
[2]; [6]
  LD50: > 500 mg/kg
[2]; po, mice, v.o., read-out: APPROXIMATE DL₅₀
  LD50: > 500 mg/kg
[3]; 1 mg/kg i.p., N 7, Excipient 5,7 ± 1,5
  2nd LATENCY (10'), average ± E.S.: 3,3 ± 1,4
[3]; 1 mg/kg i.p., N 7, Excipient 6
  2nd LATENCY (10'), median: 4
[3]; 1 mg/kg i.p., N 7, Excipient 7,1 ± 1,6
  1st LATENCY, average ± E.S.: 2,7 ± 0,7
[3]; 1 mg/kg i.p., N 7, Excipient 9
  1st LATENCY, median: 3
[3]; 1 mg/kg i.p., N 7, Excipient 10,7 ± 4,8
  3rd LATENCY -(24 h), average ± E.S.: 23,6 ± 9,0
[3]; 1 mg/kg i.p., N 7, Excipient 21
  3rd LATENCY -(24 h), median: 42
[5]; 0,5 mg/kg i.p., Excipient 158 ± 15
  SOCIAL INTERACTION TIME (sec ± E.S.): 235 ± 12 s
[5]; 2 mg/kg v.o., Excipient i.p 158 ± 15
  SOCIAL INTERACTION TIME (sec ± E.S.): 262 ± 17 s

## CN1[C@@H]2CC[C@H]1C[C@@H](OC(=O)c1c[nH]c3ccccc13)C2 [TROPISETRON]
[4]; 10 µg/kg i.p., N 20, same group PRE-EXPOSURE 12,4 ± 3,0
  % TIME IN LIGHT COMPARTMENT (X ± E.S.): 12,3 ± 3,0%
[5]; [7]
  SOCIAL INTERACTION TIME (sec ± E.S.): 253 ± 10 s
[5]; 0,1 mg/kg i.p., Excipient 158 ± 15
  SOCIAL INTERACTION TIME (sec ± E.S.): 231 ± 26 s
